Results on two compounds are retold here after patent US20120282676A1, “Compositions and Methods for Enhancing Lipid Production in Marine Microalgae” (Old Queens, priority 2011, published 2012).

The subject of assay [1] is Phaeodactylum tricornutum. The assay is described as follows: Growth of P. tricornutum cultures in different nitrogen regimes (cell densities, Coulter counter). It counts as cell-based. The note with it: relative to the control (NO3+Mo). The procedure:
This was also the reason to perform all experiments in artificial medium. […] During the period of acclimation the cultures were maintained at 18° C., under continuous light using liner cool fluorescent lamps emitting white light at 300 μmol quanta·m^-2·s^-1, and 0.2 μm filtered air bubbling. Periodic dilutions with fresh media were also executed to main the cells in exponential phase of growth. […] The light intensity and temperature were maintained as described above. After 3 days (72 h) of growth samples were collected and processed for further analyses (described bellow). Experiments were performed at least in triplicate. The cellular densities were monitored with a Coulter counter multisizer 3 (Beckman Coulter Inc, Fullerton, Calif., USA).

Assay [2] concerns Phaeodactylum tricornutum. The assay is described as follows: Fatty acids extraction and analysis (FAME, GC-FID). The following applies: for more fatty acid per cell than the control: relative to NO3− replete cells (control). Format: cell-based. The method, then: Fatty acid methyl esters (FAME) extraction and methylation was based on a method developed by Rodriguez-Ruiz et al., 1998. […] The vials were sealed with a Teflon-lined cap and boiled in a water-bath for 1 h. After incubation the vials were cooled to room temperature and 1 ml of milliQ water was added to each sample. Samples were vortexed and centrifuged (5 min, 3000 rpm) to allow phase separation and the top […] phases were transferred with glass-pipettes to GC vials with Teflon-lined caps (Fisher Scientific). FAME analyses were performed in a gas-chromatographer (GC 2010 Shimadzu, Japan) equipped with a TR-FAME (0.25 μm×60 m) column (Thermo electron corporation, USA) and a flame ionization detector (FID). Helium was used as the carrier gas at 26 psi. The injector and detector temperatures were 240° C. and 250° C. respectively. The time-oven temperature program was: 140° C. (5 min) increasing up to 240° C. at 4° C.·min^-1. FAMEs were identified by reference to authentic standards (SupelcoTM 37 component FAME, Sigma-Aldrich) processed and analyzed under the same conditions.

Assay [3] deals with nitrate reductase (NR) protein. Put plainly: NR western-blot. The note with it: FIG. 2. Format: cell-based, Phaeodactylum tricornutum. The procedure: Protein concentrations were determined with the bicinchoninic acid method (BCA, Pierce). […] Blots were probed for 1 h with anti-NR assimilatory (1:500) purchased from Agrisera (part no. AS08-310). Subsequently, an HRP-conjugated polyclonal goat anti-rabbit IgC antibody (Pierce, 1:10000) was used followed by chemifluorescence detection (Amersham™ ECL Plus, RPN2132). Image acquisition was performed with a molecular imager XR+ system (BIORAD, USA).

The subject of assay [4] is Phaeodactylum tricornutum. The assay is described as follows: Lipid body imaging (BODIPY, epifluorescence microscopy). Format: cell-based. The following applies: BODIPY staining, FIG. 4. The procedure: Intracellular lipid bodies were stained with 10 μg·ml^-1 BODIPY (4,4-difluoro-3a, 4a-diaza-s-indacene) probe (D-3922, Molecular Probes, Invitrogen, USA). Cells were subsequently observed with an inverted epifluorescence microscope Olympus IX71 (Olympus, Japan) equipped with a mercury X-CITE 120 lamp (EXFO, Canada), using the 482/536 nm excitation/emission filter. Images were acquired with a […] high-speed monochromatic cooled CCD camera system and IPLab for Mac (v3.9) for image processing and analysis.

For assay [5], the system named is Phaeodactylum tricornutum. The note with it: preliminary LC-MS analyses, FIG. 6. The text has this:
FIG. 6. Liquid-chromatography mass-spectrometry (LC-MS) plot representing the relative content of triacylglycerides (TAG) species between cells growing with nitrate or ammonium as nitrogen sources. Total lipids from P. tricronutum cells growing with nitrate or ammonium as nitrogen source (from the experiments described in the main text) were extracted with the Bligh-Dyer method (Bligh and Dyer) and analysed by liquid-chromatography mass-spectrometry (LC-MS).

Assay [6] relates to Dunaliella terciolecta.
The test system of assay [7] is Phaeodactylum tricornutum. The assay is described as follows: Metabolite profiling (LC-MS/MS). The following applies: W-mediated NR inactivation of NO3− grown cells. Format: cell-based. The procedure: Metabolite profiles were obtained via the method described by Bennette et al. (2010). Cells were quenched via rapid filtration of 14.3 million cells followed by immediate transfer of filters to 1.8 mL of 80:20 methanol:water at −20° C. in 35×10 mm Petri dishes. Filters were incubated at −20° C. for 15 minutes and scraped clean of cells in the extraction solvent. The 1.8 mL of extraction solvent with cells was transferred to 2 mL eppendorf tubes, followed by a 0.25 mL 80:20 methanol:water at −20° C. wash of the filter to collect remaining quenched cell material. The eppendorf tubes were spun at 4° C., and supernatant was collected. To the cell pellet, 100 μL 80:20 methanol:water at −20° C. was added, vortexed, incubated at −20° C. for 15 minutes, and pelletted. The 100 μL was combined with the original supernatant, and 50 μL transferred to GC vials. […] Standards for each metabolite, run with sample background, were used for quantification. The column used was a Synergi 2.5μ hydro RP 100A, size 100×2 mm (Phenomonex, Torrance, Calif., USA).

Assay [8] deals with Selenastrum capricornutum. The following applies: sodium tungsten in small concentration (≦400 μM); Strigul et al. 2009; cited from earlier work.

Regarding `Cl.N` [NH4+, NH4Cl], the “decrease of growth rate” value in assay [1] stood at 10%. The “more fatty acid per cell than the control” value in assay [2] (3 days) is listed as at least 40%. The “NR protein band (approximately 100 kDa) in western-blot” value in assay [3] was “weak band”. Moreover, the “number of lipid bodies per cell” value in assay [4] is listed as “very high numbers”. Besides, the “TAG species relative to NO3− grown cells” value in assay [5] is given as “all TAG species of P. tricornutum NH4+ grown cells increase”. In addition, the “more total fatty acid than with NO3−” value in assay [6] (D. terciolecta, NH4+ as nitrogen source) was 13%.

Consider `[Na+].[Na+].[O]=[W](=[O])([O-])[O-]` [W, sodium tungsten], for which the “Fatty acids cell^−1 (total fatty acid)” value in assay [2] (P. tricornutum, 3 days, mean ± SD, n ≧ 3) worked out at 3.99 ± 0.24 pg. Further, in assay [2] (W added to NH4+ growing cultures, compared to all the other situations, FIG. 1B), the “higher rate of fatty acid accumulated per unit volume” value is recorded as “over 30%”. Besides, the “more fatty acid per cell than the control” value in assay [2] (3 days) is given as 40%. Also, the “glutamate and glutamine levels, share of control levels” value in assay [7] is recorded as “about 10%”. In addition, in assay [6] (D. terciolecta, W in conjunction with NH4+), the average growth rate result is listed as “increased the average growth rate”. Further, the “more fatty acid per unit volume than nitrate-grown cultures” value in assay [6] (D. terciolecta, W in conjunction with NH4+, after 3 days, FIG. 7) is 88%. Also, the “higher rates of lipid production per unit biomass than in controlled conditions” value in assay [6] (tungsten in combination with ammonium, organism not given) is 87%. For the same compound, the effect on growth result in assay [8] was “stimulated growth”.
